Data taken from patent US12509451B2, “Heteroaryl amide inhibitors of CD38” (NAPA THERAPEUTICS LTD., priority 2020, dated 2025).
Each block holds one compound with its values, some of them ahead of it.

Key:
[1] = biological target: T1, CD38 (Mus musculus, UniProt P56528); test: In vivo efficacy against CD38 in obese mice, acute oral administration, liver NAD+ metabolites
T1 construct: aged mice (male C57BL6/J, 22 months old) were fasted for 4 hr; from tissue; host or cells: C57BL6/J mice (aged, DIO obese or LPS-challenged); liver, spleen, plasma
T1 sequence (P56528 1-304): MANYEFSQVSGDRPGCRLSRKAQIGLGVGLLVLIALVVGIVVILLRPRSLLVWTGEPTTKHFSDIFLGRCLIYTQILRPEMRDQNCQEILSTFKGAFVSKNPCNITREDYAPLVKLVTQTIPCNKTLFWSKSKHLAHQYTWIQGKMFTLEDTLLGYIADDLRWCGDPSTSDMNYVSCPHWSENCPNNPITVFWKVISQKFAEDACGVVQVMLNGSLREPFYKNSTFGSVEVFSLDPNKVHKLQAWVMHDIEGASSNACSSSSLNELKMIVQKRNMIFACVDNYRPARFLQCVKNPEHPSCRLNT

[2] = biological target: T1, CD38; test: In vivo efficacy against CD38 in aged mice, BID for 5 days, liver NAD+ metabolites; conditions: 3 hr post-dosing
Protocol: (§1) The in vivo efficacy of Compound 32 against the human CD38 enzyme was tested in aged mice after oral administration and determined by mass spec (MS) analysis of NAD+ metabolites levels in liver tissue. The two main CD38 substrates, NAD+ and NMN, and the 2 main byproducts of the CD38 enzymatic reaction, NAM and ADPR, were measured.
(§2) Compound 32 was administered to aged mice (male DIO C57BL6/J, 19-22 months old) via oral gavage at a concentration of 3 mg/kg and 10 mg/kg BID for 5 days. At day 5, mice were humanely euthanized for liver tissue harvesting 3 hr post-dosing. A vehicle control (DMSO: Solutol HS 15: 80% Captisol (20% in water)(5:15:80 v/v)) was included to assess baseline NAD+ metabolites levels.
(§3) The procedure for tissue sample preparation and UPLC-MS/MS methods were adapted from Trammell et al. (2013) Compu. Struct. Biotechnol. J. […] (https://www.ncbi.nlm.nih.gov/pmc/articles/PMC3962138/). Frozen liver tissue was pulverized and resuspended in the extraction buffer (3:1 ethanol:10 mM aq. HEPES, pH 7.1). The samples were vortexed, sonicated briefly in a bath sonicator, and shaken at 55° C. for 3 min at 1,200 rpm. Samples were then centrifuged at 16,000×g for 10 min at 4° C., and the supernatant was dried by speedvac. The dried pellet was resuspended in 97% 10 mM ammonium acetate/3% acetonitrile, centrifuged at 16,000×g for 10 min at 4° C. and 2 μL was injected for LCMS analysis.
(§4) The UPLC-MS/MS analysis to measure NAD+ metabolites was performed using a Vanquish UHPLC system and a Q Exactive Orbitrap mass spectrometer with H-ESI ion source both from Thermo Scientific. UPLC separation was performed on a Hypercarb (2.1×100 mm, 5 μm particle size, Thermo) column following the method described in Trammell et al. (2013). Acquisition was carried out in positive ion, Parallel Reaction Monitoring (PRM) mode and targeted […] (t-SIM). The Thermo Xcalibur QualBrowser system (version 4.2.47) and Freestyle (version 1.8.51.0) softwares was used for the data processing. For relative fold change, peak areas were normalized with respective internal standards, normalized to weight of the tissue sample used, and calculated as fold change relative at 0 h timepoint/vehicle group.
as §1, with “39” for “32”, “spec” for “spec (MS)”
as §2, with “39” for “32”, “of” for “of 3 mg/kg and”

[3] = biological target: T1, CD38; test: In vivo efficacy against CD38 in obese mice, chronic oral administration 49 days, liver NAD+ metabolites; conditions: 10 mg/kg BID oral, 4 hr post-dosing
Protocol: as §1, with “obese” for “aged”
(§5) Obese mice (male DIO C57BL6/J, 65 weeks old) treated for 49 days with compound 32 via oral gavage at a concentration of 10 mg/kg BID. On day 49, mice were humanely euthanized for liver tissue harvesting at 4 hr post-dosing. A vehicle control (1% Methylcellulose) was included to assess baseline NAD+ metabolites levels.
as §3, §4
as §1, with “39” for “32”, “obese” for “aged”, “spec” for “spec (MS)”
as §5, with “39” for “32”

[4] = biological target: T1, CD38; test: LPS-induced inflammation in mice, MS analysis of NAD+ metabolism in spleen and liver; type: in vivo
Protocol: The in vivo efficacy of Compound 39 against the human CD38 enzyme after LPS challenge was assessed. The effects of Compound 39 (10 mg/kg and 30 mg/kg) on inflammato cytokines, inflammation markers and NAD+ levels at 4 h and 8 h points after LPS-induced inflammation in 12 weeks old male C57BL/6J mice were evaluated.
Animals were euthanized by terminal cardiac blood puncture immediately after terminal CO2, 4 h and 8 h after LPS administration. At necropsy, the tissues (Liver, Plasma, Spleen, Kidney, Lungs, Heart, Visceral Adipose Tissue, Muscle-Gastrocnemius) were collected and quick frozen in liquid nitrogen. The blood was collected in a BD Microtainer® K2EDTA Additive Tube, centrifuge at 1000 g for 10 min at 4° C. and plasma was store at −80° C.).

[5] = single 10 mg/kg oral dose, 1 hour post administration
[6] = 30 mg/kg, 8 hours post LPS challenge
[7] = single 1 mg/kg and 10 mg/kg oral dose

ADPR levels in liver ([1]; single 3 mg/kg oral dose): decrease | NAD+ levels in liver ([1]; single 3 mg/kg oral dose): increase | NAM levels in liver ([1]; single 3 mg/kg oral dose): decrease | NMN levels in liver ([1]; single 3 mg/kg oral dose): increase | ADPR levels in liver [1, 5]: decrease | NAD+ levels in liver [1, 5]: remarkably increase | NAM levels in liver [1, 5]: decrease | NMN levels in liver [1, 5]: remarkably increase | ADPR levels in liver ([2]; 3 mg/kg and 10 mg/kg BID oral): decrease | NAD+ levels in liver ([2]; 3 mg/kg and 10 mg/kg BID oral): significantly increase | NAM levels in liver ([2]; 3 mg/kg and 10 mg/kg BID oral): decrease | NMN levels in liver ([2]; 3 mg/kg and 10 mg/kg BID oral): significantly increase | ADPR levels in liver [3]: significantly decrease | NAM levels in liver [3]: significantly decrease
Structure (SMILES): O=C(Nc1ccnc(C(F)(F)F)c1)c1cc(OC2CC2)cc(-n2ccnc2)n1 [Compound 32, 4-cyclopropoxy-6-(1H-imidazol-1-yl)-N-(2-(trifluoromethyl)pyridin-4-yl)picolinamide]

increase of NAD+ levels in liver ([4]; 10 mg/kg, 8 hours post LPS challenge): 2 fold | decrease of NAM levels in liver [4, 6]: 38% | increase of NAD+ levels in spleen [4, 6]: 2.3 fold | decrease in ADPR levels in spleen ([4]; 30 mg/kg, 8 h treatment): 40% | ADPR levels in liver ([4]; treatment arms, 4 hours post LPS challenge): decrease | ADPR levels in liver [1, 7]: decrease | NAD+ levels in liver [1, 7]: increase | NAM levels in liver [1, 7]: decrease | NMN levels in liver [1, 7]: increase | ADPR levels in liver ([2]; 10 mg/kg BID oral): decrease | NAD+ levels in liver ([2]; 10 mg/kg BID oral): increase | NAM levels in liver ([2]; 10 mg/kg BID oral): decrease | ADPR levels in liver [3]: decrease | NAD+ levels in liver [3]: significantly increase | NAM levels in liver [3]: decrease | NMN levels in liver [3]: significantly increase
Structure (SMILES): COCCOc1cc(C(=O)Nc2ccnc(C(F)(F)F)c2)nc(-n2ccnc2)n1 [Compound 39, 2-(1H-imidazol-1-yl)-6-(2-methoxyethoxy)-N-(2-(trifluoromethyl)pyridin-4-yl)pyrimidine-4-carboxamide]
